Assay results published in the RepoRT retention time repository.
Where a name gives a salt, the structure may show the parent alone.

Assay: HILIC, Merck SeQuant ZIC-HILIC, 25 °C, 0.25 mL/min; A: water + 16 mM ammonium formate; B: acetonitrile + 0.1% formic acid, pH 3; gradient (min/%B) 0/97 2/97 10/70 15/10 17/10 18/97 25/97
Settings: stereoisomer not certain
In the case of `NCC(N)C(=O)O` (configuration not stated) [2-3-DIAMINOPROPIONATE], the LC retention time is reported as 16.1 min.
In the case of `O=C(O)C(=O)Cc1ccccc1` [PHENYLPYRUVATE], the LC retention time is reported as 2.18 min.
Work on `NCC(O)c1ccccc1` (configuration not stated) [PHENYLETHANOLAMINE] yielded an LC retention time of 10.9 min.
With `CC(CCC(=O)O)C1CCC2C3C(O)CC4CC(O)CCC4(C)C3CC(O)C12C` (configuration not stated) [CHOLATE] the LC retention time was 2.18 min.
Compound `NC(=O)NC1NC(=O)NC1=O` (configuration not stated) [ALLANTOIN] has an LC retention time of 11.2 min.
`Cn1c[n+](C2OC(CO)C(O)C2O)c2nc(N)[nH]c(=O)c21` (configuration not stated) [7-Methylguanosine] showed an LC retention time of 12.9 min.
For `CC(=O)NCCCNCCCCNCCCN` [N1-ACETYLSPERMINE], the LC retention time was 19.9 min.
With `OCC1OC(O)CC1O` (configuration not stated) the LC retention time was 13 min.
`CCCCCCCCCCCCCCCC(=O)OCC(CO)OC(=O)CCCCCCCCCCCCCCC` (configuration not stated) [DIPALMITOYLGLYCEROL] gave an LC retention time of 1.5 min.
In the case of `NC(=O)CC[C@H](N)C(=O)O` [L-Glutamine], the LC retention time is reported as 14.1 min.
Compound `NC(=O)c1ncn(C2OC(COP(=O)(O)O)C(O)C2O)c1N` (configuration not stated) [AICAR] has an LC retention time of 14.2 min.
`CC(=O)c1ccc(O)cc1O` [2'-4'-DIHYDROXYACETOPHENONE] showed an LC retention time of 1.72 min.
Compound `CC(CCC(=O)O)C1CCC2C3CCC4CC(O)CCC4(C)C3CC(=O)C12C` (configuration not stated) [5b-cholanic acid-3a-OL-12-ONE] has an LC retention time of 1.81 min.
Work on `CC=CC=CC(=O)O` [SORBATE] yielded an LC retention time of 1.8 min.
Compound `C[N+](C)(C)CCCCC(N)C(=O)[O-]` (configuration not stated) [N-N-N-TRIMETHYLLYSINE] has an LC retention time of 16.5 min.
With `O=C(O)CP(=O)(O)O` [PHOSPHONOACETATE] the LC retention time was 14.3 min.
For `C[C@H](O)CC(=O)O` [(S)-3-Hydroxybutyric acid], the LC retention time was 2.16 min.
`CCCCCCCCCCCCCCCC(=O)OCC(O)COP(=O)([O-])OCC[N+](C)(C)C` (configuration not stated) [16-0_LysoPC] gave an LC retention time of 11.2 min.
Compound `Cn1cnc2nc(N)[nH]c(=O)c21` [7-methylguanine] has an LC retention time of 9.77 min.
For `O=c1cccc[nH]1` [2-HYDROXYPYRIDINE], the LC retention time was 2.15 min.
With `CC(=O)OCC[N+](C)(C)C` [ACETYLCHOLINE+C2H2O4] the LC retention time was 10 min.
For `CC(=O)C1CCC2C3CC=C4CC(OS(=O)(=O)O)CCC4(C)C3CCC12C` (configuration not stated) [pregnenolone sulfate], the LC retention time was 2.05 min.
Work on `CC12CCC(=O)C=C1CCC1C2C(O)CC2(C)C1CCC2(O)C(=O)CO` (configuration not stated) [CORTISOL] yielded an LC retention time of 1.89 min.
In the case of `CC(=O)NCC(=O)O` [N-ACETYLGLYCINE], the LC retention time is reported as 4.93 min.
For `Nc1nc2c(ncn2C2OC3COP(=O)(O)OC3C2O)c(=O)[nH]1` (configuration not stated) [CYCLIC GMP], the LC retention time was 13.4 min.
`O=C(O)c1c(O)cccc1O` [2-6-Dihydroxybenzoic acid] showed an LC retention time of 2.07 min.
`CNC(CCC(=O)O)C(=O)O` (configuration not stated) [N-METHYLGLUTAMATE] showed an LC retention time of 13.9 min.
`CCCCCCCCCCCCCC=CC(O)C(COP(=O)([O-])OCC[N+](C)(C)C)NC(=O)CCCCCCCCCCCCCCCCC` (configuration not stated) [SPHINGOMYELIN] gave an LC retention time of 10.8 min.
`O=C(CO)COP(=O)(O)O` [DIHYDROXYACETONE PHOSPHATE] showed an LC retention time of 14 min.
For `Cc1cnc(=O)[nH]c1N` [5-METHYLCYTOSINE], the LC retention time was 11.6 min.
Compound `NC(CCC(=O)O)C(=O)O` (configuration not stated) [GLUTAMATE] has an LC retention time of 14.2 min.
`CC(=O)NC(C(=O)O)C(C)C` (racemic) [N-acetyl-DL-valine] gave an LC retention time of 2.08 min.
Compound `NC(CCCC(=O)O)C(=O)O` (configuration not stated) [AMINOADIPATE] has an LC retention time of 13.8 min.
In the case of `O=C(O)c1ccc(O)cc1O` [2-4-Dihydroxybenzoic acid], the LC retention time is reported as 2.18 min.
In the case of `Nc1ncnc2c1ncn2C1CC(O)C(COP(=O)(O)OP(=O)(O)OP(=O)(O)O)O1` (configuration not stated) [DEOXYADENOSINE TRIPHOSPHATE], the LC retention time is reported as 15.7 min.
Work on `CC(CCCC(C)(C)O)C1CCC2C3CC=C4CC(O)CCC4(C)C3CCC12C` (configuration not stated) [25-HYDROXYCHOLESTEROL] yielded an LC retention time of 1.6 min.
With `C#CC1(O)CCC2C3CCc4cc(O)ccc4C3CCC21C` (configuration not stated) [17a-Ethynylestradiol] the LC retention time was 1.68 min.
`O=C(O)CCc1ccccc1` [hydrocinnamic acid] showed an LC retention time of 1.69 min.
For `Nc1ncnc2c1ncn2C1OC(COP(=O)(O)O)C(OP(=O)(O)O)C1O` (configuration not stated) [ADENOSINE 3'-5'-DIPHOSPHATE], the LC retention time was 14.9 min.
`CSCCC(NC(C)=O)C(=O)O` (configuration not stated) [N-ACETYLMETHIONINE] showed an LC retention time of 2.18 min.
`O=c1c(O)c(-c2ccc(O)c(O)c2)oc2cc(O)cc(O)c12` [quercetine dihydrate] gave an LC retention time of 2.16 min.
`CCCCCCCCCCCCCC(=O)OCC(O)CO` (configuration not stated) [GLYCEROL-MYRISTATE] showed an LC retention time of 1.64 min.
`O=C(O)CCCCCCCCC(=O)O` [Sebacic acid] showed an LC retention time of 1.88 min.
Compound `CC(=O)NC(Cc1c[nH]c2ccccc12)C(=O)O` (configuration not stated) [N-ACETYLTRYPTOPHAN] has an LC retention time of 2.15 min.
In the case of `NC(CCS)C(=O)O` (configuration not stated) [HOMOCYSTEINE], the LC retention time is reported as 12.4 min.
Work on `O=C(O)C(O)C(O)C(=O)O` (configuration not stated) [TARTRATE D] yielded an LC retention time of 14.2 min.
`Cc1cc(O)cc2c1OC(C)(CCC(=O)O)CC2` (configuration not stated) [delta CEHC] showed an LC retention time of 1.87 min.
